Patent US20240228507A1, “GREEN SOLVENTS FOR CHEMICAL REACTIONS” (ECOLE POLYTECHNIQUE FÉDÉRALE DE LAUSANNE (EPFL), priority 2021, published 2024)

Assays:
[1] = Stability under acidic conditions; assay type: physicochemical
[2] = Kamlet-Abboud-Taft solvatochromic parameters (dye absorption spectra); assay type: physicochemical; conditions: for Kamlet-Taft Π* / Kamlet-Taft α / Kamlet-Taft β: Table 4; for Kamlet-Taft Parameters Π* / Kamlet-Taft Parameters α / Kamlet-Taft Parameters β: Table 1a; for Kamlet-Abboud-Taft α / Kamlet-Abboud-Taft β / Kamlet-Abboud-Taft π: Table 1c
From the text: Determination of the Kamlet-Abboud-Taft parameters was based on the absorption spectrum of two dyes (N,N-diethyl-4-nitroaniline and 4-nitroaniline) in different solvents, that allow calculating corresponding values using known procedures (P. G. Jessop, D. A. Jessop, D. Fu and L. Phan, Green Chem., 2012, 14, 1245-1259).

[3] = Maximum absorbance of Nile Red dye in the solvent; assay type: physicochemical
Protocol: The absorbance spectra of 4-nitroaniline dye (cf. FIG. 10a), N,N-diethyl-4-nitroaniline dye (cf. FIG. 10b) as well as of Nile Red dye (cf. FIG. 10c) in the compounds 1, 3, 4 and 24 of claim 13 as well as in DMSO were measured. Nile Red absorbance is dependent on polarity and acidity, but as acidity is 0 in the case of aprotic solvents, the value is only polarity dependent. This differs from π*, which is both polarity and polarizability dependent. The maximum absorbance of Nile Red in 1, 3, 4 and 24 was measured to be 543, 536, 534.5 and 535 nm respectively. […] Values for 3, 4 and 24 are similar to conventional medium polarity aprotic solvents such as dichloromethane (535.2 nm) and acetonitrile (531.6 nm).
The Nile red value for DEX:PG is 553 nm, indicating similar chemical behavior to Methanol (550 nm) and Ethanolamine (557 nm).

Flash point = assay type: physicochemical
[4] = Miscibility with different solvents; assay type: physicochemical; set-up: key: “*” indicating—not miscible; conditions: Table 1d; blank cell = miscible
[5] = Stability of DFX under basic conditions (GC-FID/GC-MS, colour change); assay type: physicochemical; conditions: Pyridine and KOAc
Protocol: To assess DFX stability under basic conditions, we tested a series of organic and inorganic bases at 80° C. and 110° C. for maximum 48 h (Table 6). Visual color change compared to a blank solution of pure DFX indicated some reactions were occurring. After 0.5 h, 24 h, 48 h of exposure, the samples were injected in GC-FID and GC-MS and the area of DFX was compared with the one in blank sample using decane as the internal standard. As a result of this experiment, we identified some potential limitations of this emerging solvent. Specifically, inorganic bases such as K2CO3, NaOH, CsCO3 led to the highest extent of degradation (maximum 21% after 48 h). Triethylamine (NEt3) caused less than 5% of degradation, but led to the formation of dark solution as well as K2CO3, NaOH, CsCO3. Probably, impurities existing in DFX (95% pure) also contribute to a color change as they could interact with bases.

CC1(C)OC[C@H]2O[C@@H]3OC(C)(C)O[C@@H]3[C@H]2O1 [Compound 11]
melting point: 43 °C

CC(C)C1OCC2OC3OC(C(C)C)OC3C2O1 (centres unmarked) [DIBX, Diisobutylxylose]
sensitivity to strong acids (visual, orange-colored solution) [1]: showed sensitivity to strong acids

CC#N [Acetonitrile, acetonitrile]
Kamlet-Taft Π* [2]: 0.8
Kamlet-Taft α [2]: 0.35
Kamlet-Taft β [2]: 0.37
maximum absorbance of Nile Red [3]: 531.6 nm

CO [Methanol, methanol]
maximum absorbance of Nile Red [3]: 550 nm

CC1CCC(=O)O1 (centres unmarked) [GVL, -valerolactone]
Kamlet-Taft Parameters Π* [2]: 0.83
Kamlet-Taft Parameters α [2]: 0.00
Kamlet-Taft Parameters β [2]: 0.60
Flash point (Flash point): 96.1 °C

CCC1OCC2OC3OC(CC)OC3C2O1 (centres unmarked) [DPX, Dipropylxylose]
sensitivity to strong acids (visual, orange-colored solution) [1]: showed sensitivity to strong acids

CCCC1OC[C@H]2O[C@@H]3OC(CCC)O[C@@H]3[C@H]2O1 (some centres unmarked) [Compound 24]
Kamlet-Abboud-Taft α [2]: 0
Kamlet-Abboud-Taft β [2]: 0.56
Kamlet-Abboud-Taft π [2]: 0.65
melting point: 24.5 °C
Miscibility with Water [4]: *
maximum absorbance of Nile Red [3]: 535 nm

C1OC[C@H]2O[C@@H]3OCO[C@@H]3[C@H]2O1 [Compound 1, Diformylxylose]
effect on stability [5]: didn't show any significant effect
melting point: 48 °C

C1COCCO1 [1,4-dioxane]
Kamlet-Taft Parameters Π* [2]: 0.55
Kamlet-Taft Parameters α [2]: 0.00
Kamlet-Taft Parameters β [2]: 0.37
Kamlet-Abboud-Taft α [2]: 0
Kamlet-Abboud-Taft β [2]: 0.37
Kamlet-Abboud-Taft π [2]: 0.55

CN(C)C=O [DMF, N,N-dimethylformamide]
maximum absorbance of Nile Red [3]: 541 nm

CCCCN1CCCC1=O [N-butylpyrrolidinone]
Kamlet-Taft Parameters Π* [2]: 0.77
Kamlet-Taft Parameters α [2]: 0.00
Kamlet-Taft Parameters β [2]: 0.92

O=C1OCCO1 [Ethylene carbonate]
Kamlet-Taft Parameters Π* [2]: 0.99
Kamlet-Taft Parameters α [2]: 0.00
Kamlet-Taft Parameters β [2]: 0.32

C[S+](C)[O-] [DMSO, dimethyl sulfoxide]
Kamlet-Taft Parameters Π* [2]: 1.00
Kamlet-Taft Parameters α [2]: 0.00
Kamlet-Taft Parameters β [2]: 0.74

CC1CCCO1 (centres unmarked) [Compound 2-MeTHF, 2-methyltetrahydrofuran]
Kamlet-Abboud-Taft α [2]: 0
Kamlet-Abboud-Taft β [2]: 0.58
Kamlet-Abboud-Taft π [2]: 0.53

CC(C)(C)C1OC[C@H]2O[C@@H]3OC(C(C)(C)C)O[C@@H]3[C@H]2O1 (some centres unmarked) [Compound 5]
melting point: 120 °C

COC1CCCC1 [CPME, cyclopentyl methyl ether]
Flash point (Flash point): −1 °C

C1CCOC1 [THF, Tetrahydrofuran]
Kamlet-Abboud-Taft α [2]: 0
Kamlet-Abboud-Taft β [2]: 0.55
Kamlet-Abboud-Taft π [2]: 0.58

CC1OC[C@H]2O[C@@H]3OC(C)O[C@@H]3[C@H]2O1 (some centres unmarked) [Compound 2]
melting point: 60 °C

ClCCl [dichloromethane]
maximum absorbance of Nile Red [3]: 535.2 nm

COC(=O)C1OC[C@H]2O[C@@H]3OC(C(=O)OC)O[C@@H]3[C@H]2O1 (some centres unmarked) [Compound 14]
melting point: 83 °C

CCC1OC[C@H]2O[C@@H]3OC(CC)O[C@@H]3[C@H]2O1 (some centres unmarked) [Compound 3]
Kamlet-Abboud-Taft α [2]: 0
Kamlet-Abboud-Taft β [2]: 0.63
Kamlet-Abboud-Taft π [2]: 0.68
melting point: 34 °C
maximum absorbance of Nile Red [3]: 536 nm

NCCO [Ethanolamine]
maximum absorbance of Nile Red [3]: 557 nm

CC(C)(C)C1OCC2OC3OC(C(C)(C)C)OC3C2O1 (centres unmarked) [DNPX, Dineopentylxylose]
sensitivity to strong acids (visual, orange-colored solution) [1]: showed sensitivity to strong acids

O=C1CC[C@H]2CO[C@@H]1O2 [Cyrene]
Kamlet-Taft Parameters Π* [2]: 0.93
Kamlet-Taft Parameters α [2]: 0.00
Kamlet-Taft Parameters β [2]: 0.61
stability under acidic conditions ([1]; 95° C. or 70° C., 0.8M HCl, 15 min): extensive degradation
Flash point (Flash point): 108 °C

O=S1(=O)CCCC1 [Sulfolane]
Kamlet-Taft Parameters Π* [2]: 0.98
Kamlet-Taft Parameters α [2]: 0.00
Kamlet-Taft Parameters β [2]: 0.39
maximum absorbance of Nile Red [3]: 545 nm

CCCC1OCC2OC3OC(CCC)OC3C2O1 (centres unmarked) [DBX, Dibutylxylose]
sensitivity to strong acids (visual, orange-colored solution) [1]: showed sensitivity to strong acids

CC1CCCO1 (centres unmarked) [Compound 2-Me-THF]
Flash point (Flash point): −10 °C

CC(C)C1OC[C@H]2O[C@@H]3OC(C(C)C)O[C@@H]3[C@H]2O1 (some centres unmarked) [Compound 4]
Kamlet-Abboud-Taft α [2]: 0
Kamlet-Abboud-Taft β [2]: 0.51
Kamlet-Abboud-Taft π [2]: 0.63
melting point: 31 °C
maximum absorbance of Nile Red [3]: 534.5 nm

COC(C)(C)C [MTBE]
Flash point (Flash point): −28 °C

CC(C)=O [Acetone, acetone]
Kamlet-Taft Π* [2]: 0.71
Kamlet-Taft α [2]: 0.08
Kamlet-Taft β [2]: 0.48

C1CCCCC1 [Cyclohexane, cyclohexane]
Kamlet-Abboud-Taft α [2]: 0
Kamlet-Abboud-Taft β [2]: 0
Kamlet-Abboud-Taft π [2]: 0
